Measurements published in patent publication US20160051629A1, “INHIBITION OF RIP KINASES FOR TREATING LYSOSOMAL STORAGE DISEASES” (YEDA RESEARCH AND DEVELOPMENT CO. LTD., priority 2013, published 2016).

Key:
Gaucher disease mice = assay: Anakinra (IL-1Ra) treatment of CBE-induced Gaucher disease mice; format: in vivo
Description: Mice were injected i.p. with 50 mg/kg/day CBE or CBE+IL-1Ra (Anakinra, 75 mg/kg) from 8 days of age. Body weight (FIG. 7A) and life span (FIG. 7B) of mice treated with either CBE only or CBE+Anakinara (n=3).
Gba^flox/flox; mice were crossed with Gba^flox/+; Nestin-Cre mice to generate Gba^flox/flox; Nestin-Cre mice (Enquist, I. B. et al. 2007. Proc. Natl. Acad. Sci. U.S.A. 104, 17483-17488) and Gba^flox/+; Nestin-Cre mice, which served as healthy controls. Genotyping was performed by PCR using genomic DNA extracted from mouse tails or embryonic brains (Farfel-Becker, T. et al. 2009. Hum. Mol. Genet. 18, 1482-1488). Both male and female mice were used. The colony was maintained in the experimental animal center of the Weizmann Institute of Science. All animal experiments were approved by the Weizmann Institute Institutional Animal Care and Use Committee. Mice deficient in galactocerebrosidase (the Twitcher mouse) were used as a model of Krabbe disease (Suzuki. K. & Taniike, M. 1995. Res. Tech. 32, 204-214), mice deficient in the β-subunit of β-hexosaminidase A and B were used as a model of Sandhoff disease (Sango, K. et al. 1995. Nat. Genet. 11, 170-176). Brains from a mouse model of the GM1 gangliosidosis (Hahn, C. N. et al. 1997. Hum. Mol. Genet. 6, 205-211), defective in lysosomal β-galactosidase, and from Niemann-Pick disease Type C1 mice (Pentchev, P. G. et al. 1984. J. Biol. Chem. 259, 5784-5791), defective in the NPC1 gene, were also used. Mice deficient in TNFα (strain B6; 129S6-Tnftm1Gkl/J, The Jackson Laboratory) were provided by Dr. David Wallach (Weizmann Institute, Israel). C57BL/6J (The Jackson Laboratory) mice were injected daily intraperitoneally with 50 mg CBE/kg body weight/day (Kanfer, J. N. et al. 1975. Biochem. Biophys. Res. Commun. 67, 85-90) or with phosphate-buffered saline from 8 days of age.

[1] = in vivo; cited from earlier work

With “Anakinra: a recombinant, non-glycosylated version of human IL-1 receptor antagonist, sold under the trade name KINERET (Amgen)” the “clinical course of Gaucher disease mice” value (Gaucher disease mice; 50 mg/kg/day CBE i.p. + IL-1Ra (Anakinra, 75 mg/kg) from 8 days of age, FIG. 7) was “improves the clinical course”, the “gain weight (body weight)” value (Gaucher disease mice; CBE-treated mice, 50 mg/kg/day CBE i.p. + Anakinra 75 mg/kg from 8 days of age, vs CBE only, n=3, FIG. 7A) was “improves gain weight” and the life-span (Gaucher disease mice; CBE-treated mice, 50 mg/kg/day CBE i.p. + Anakinra 75 mg/kg from 8 days of age, vs CBE only, n=3, FIG. 7B) was “improves”.
For `CN1C(=O)C(Cc2c[nH]c3ccccc23)NC1=S` (centres unmarked) [Nec-1, necrostatin-1], the “crossing of the blood-brain barrier” value [1] is listed as “crosses the blood-brain barrier” and the half-life [1] is listed as ~1 h.
